Measurements published in patent EP0462830B1, “Cyclic ether derivatives” (ZENECA LIMITED, priority 1990, dated 1991).

Columns and labels:
[1] = system: 5-LO; assay: Test g): zymosan-induced liberation of LTB₄ within a subcutaneous air pouch of male rats; assay type: in vivo; conditions: rat air pouch
[2] = molecular target: T1, 5-LO (Homo sapiens, UniProt P09917); assay: Test b): heparinised human blood challenged with calcium ionophore A23187, radioimmunoassay of LTB₄; assay type: cell-based; conditions: read-out: IC₅₀ (LTB₄)
T1 construct: incubating a test compound with heparinised human blood, prior to challenge with the calcium ionophore A23187; endogenous in cells; host or cells: leukocytes in heparinised human whole blood
T1 sequence (P09917 1-674): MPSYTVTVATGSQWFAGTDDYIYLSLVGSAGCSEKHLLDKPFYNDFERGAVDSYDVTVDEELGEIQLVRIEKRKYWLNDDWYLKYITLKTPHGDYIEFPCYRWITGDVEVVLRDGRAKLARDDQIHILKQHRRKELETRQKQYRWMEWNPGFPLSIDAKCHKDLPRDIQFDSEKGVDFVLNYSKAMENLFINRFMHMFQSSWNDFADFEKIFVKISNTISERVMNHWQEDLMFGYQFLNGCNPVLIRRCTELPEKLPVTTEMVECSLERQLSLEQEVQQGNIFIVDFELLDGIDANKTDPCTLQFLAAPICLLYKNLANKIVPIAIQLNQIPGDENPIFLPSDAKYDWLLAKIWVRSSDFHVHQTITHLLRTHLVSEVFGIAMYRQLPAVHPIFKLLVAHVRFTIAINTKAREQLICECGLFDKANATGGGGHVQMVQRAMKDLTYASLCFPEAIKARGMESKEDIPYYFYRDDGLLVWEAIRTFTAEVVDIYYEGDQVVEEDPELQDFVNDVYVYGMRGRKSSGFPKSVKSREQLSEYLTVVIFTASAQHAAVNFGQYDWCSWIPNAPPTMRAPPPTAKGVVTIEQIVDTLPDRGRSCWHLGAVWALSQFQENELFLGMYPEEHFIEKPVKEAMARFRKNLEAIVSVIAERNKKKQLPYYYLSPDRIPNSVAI
Procedure: This test provides a measure of the intrinsic inhibitory properties of a test compound against soluble 5-LO in an extracellular environment. • b) An in vitro assay system involving incubating a test compound with heparinised human blood, prior to challenge with the calcium ionophore A23187 and then indirectly measuring the inhibitory effects on 5-LO by assaying the amount of LTB₄ using specific radioimmunoassays described by Carey and Forder (F. Carey and R.A. Forder, Prostaglandins, Leukotrienes Med., 1986, 22, 57; Prostaglandins, 1984, 28, 666; Brit. J. Pharmacol. 1985, 84, 34P) which involve the use of a protein-LTB₄ conjugate produced using the procedure of Young et alia (Prostaglandins, 1983, 26(4), 605-613). […] This test provides an indication of the effects of a test compound against 5-LO and also cyclooxygenase in the presence of blood cells and proteins.

CSC1(c2cccc(OCc3ccc4ccccc4c3)c2)CCOCC1 [Example 1, 4-methylthio-4-[3-(naphth-2-ylmethoxy)phenyl]tetrahydropyran]
oral ED₅₀(LTB₄) [1]: 8 mg/kg | IC50 [2]: 50 nM
